Results as given in the kinase profiling compilation of Christmann-Franck et al. (2016).
Where “and” joins values, the source holds several entries; their conditions need not be identical. Equal entries are not always repeated.

Assays:
IGF1R (human) = IGF1R (human) (UniProt P08069)
PIM1 (human) = PIM1 (human) (UniProt P11309)
EPHB3 (human) = EPHB3 (human) (UniProt P54753)
PDPK1 (human) = PDPK1 (human) (UniProt O15530)
PRKACA (human) = PRKACA (human) (UniProt P17612)
TBK1 (human) = TBK1 (human) (UniProt Q9UHD2)
FLT1 (human) = FLT1 (human) (UniProt P17948)
SYK (human) = SYK (human) (UniProt P43405)
MAPK8 (human) = MAPK8 (human) (UniProt P45983)
DYRK2 (human) = DYRK2 (human) (UniProt Q92630)
PIM3 (human) = PIM3 (human) (UniProt Q86V86)
MAPK11 (human) = MAPK11 (human) (UniProt Q15759)
BRSK2 (human) = BRSK2 (human) (UniProt Q8IWQ3)
CHEK2 (human) = CHEK2 (human) (UniProt O96017)
CSNK1D (human) = CSNK1D (human) (UniProt P48730)
RPS6KA5 KD1 KD2 (human) = RPS6KA5 KD1 KD2 (human) (UniProt O75582)
MKNK1 (human) = MKNK1 (human) (UniProt Q9BUB5)
MAPK14 (human) = MAPK14 (human) (UniProt Q16539)
MAPK9 (human) = MAPK9 (human) (UniProt P45984); conditions: compound 1.0 µM
NEK2 (human) = NEK2 (human) (UniProt P51955)
PRKAA1 or PRKAA2 (rat) = conditions: accession and sequence are those of the human protein
IKBKB (human) = IKBKB (human) (UniProt O14920)
EPHA2 (human) = EPHA2 (human) (UniProt P29317)
PAK7 (human) = PAK7 (human) (UniProt Q9P286)
MELK (human) = MELK (human) (UniProt Q14680)
MAP2K1 (human) = MAP2K1 (human) (UniProt Q02750)
HIPK2 (human) = HIPK2 (human) (UniProt Q9H2X6)
INSRR (human) = INSRR (human) (UniProt P14616)
BTK (human) = BTK (human) (UniProt Q06187)
GSK3B (human) = GSK3B (human) (UniProt P49841)
IKBKE (human) = IKBKE (human) (UniProt Q14164)
MARK3 (human) = MARK3 (human) (UniProt P27448)
PHKG1 (human) = PHKG1 (human) (UniProt Q16816)
MAPK15 (human) = MAPK15 (human) (UniProt Q8TD08)
MAPK15 (human), sequence (Q8TD08 whole entry, looked up): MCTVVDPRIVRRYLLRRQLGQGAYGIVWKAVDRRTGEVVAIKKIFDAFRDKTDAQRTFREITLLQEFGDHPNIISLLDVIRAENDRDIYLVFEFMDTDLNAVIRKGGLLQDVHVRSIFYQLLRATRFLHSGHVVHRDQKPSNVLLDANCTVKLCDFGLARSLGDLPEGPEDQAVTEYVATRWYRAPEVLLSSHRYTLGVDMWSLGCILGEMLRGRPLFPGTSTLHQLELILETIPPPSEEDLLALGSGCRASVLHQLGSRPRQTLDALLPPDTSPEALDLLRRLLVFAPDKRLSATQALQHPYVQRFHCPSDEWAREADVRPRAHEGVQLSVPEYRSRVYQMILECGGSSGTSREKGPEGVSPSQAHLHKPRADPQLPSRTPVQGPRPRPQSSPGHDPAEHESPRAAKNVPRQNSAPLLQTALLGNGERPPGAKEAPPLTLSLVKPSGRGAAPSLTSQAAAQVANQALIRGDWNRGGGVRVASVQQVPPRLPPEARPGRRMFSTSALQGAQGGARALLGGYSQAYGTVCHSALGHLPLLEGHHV

RPS6KA5 KD1 KD2 (human), sequence (O75582 whole entry, looked up): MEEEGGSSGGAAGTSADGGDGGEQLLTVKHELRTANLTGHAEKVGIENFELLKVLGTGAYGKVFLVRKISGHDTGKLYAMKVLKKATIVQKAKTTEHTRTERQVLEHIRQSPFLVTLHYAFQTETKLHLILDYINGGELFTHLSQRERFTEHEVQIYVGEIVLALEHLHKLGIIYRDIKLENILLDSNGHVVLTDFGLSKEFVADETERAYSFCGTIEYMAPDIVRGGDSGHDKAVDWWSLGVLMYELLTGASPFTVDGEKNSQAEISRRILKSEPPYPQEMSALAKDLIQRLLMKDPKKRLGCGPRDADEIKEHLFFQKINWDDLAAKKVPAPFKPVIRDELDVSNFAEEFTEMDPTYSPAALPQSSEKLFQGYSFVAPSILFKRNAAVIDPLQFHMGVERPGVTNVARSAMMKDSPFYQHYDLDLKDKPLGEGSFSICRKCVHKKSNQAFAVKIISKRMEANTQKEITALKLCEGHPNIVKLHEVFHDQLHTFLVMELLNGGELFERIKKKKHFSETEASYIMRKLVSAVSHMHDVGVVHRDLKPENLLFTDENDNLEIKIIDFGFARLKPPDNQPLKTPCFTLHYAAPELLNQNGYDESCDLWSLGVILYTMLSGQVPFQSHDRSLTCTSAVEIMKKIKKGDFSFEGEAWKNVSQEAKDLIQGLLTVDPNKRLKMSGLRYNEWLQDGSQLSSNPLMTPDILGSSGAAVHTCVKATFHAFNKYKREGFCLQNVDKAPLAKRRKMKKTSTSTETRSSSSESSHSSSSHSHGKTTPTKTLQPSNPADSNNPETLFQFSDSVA
IKBKE (human), sequence (Q14164 whole entry, looked up): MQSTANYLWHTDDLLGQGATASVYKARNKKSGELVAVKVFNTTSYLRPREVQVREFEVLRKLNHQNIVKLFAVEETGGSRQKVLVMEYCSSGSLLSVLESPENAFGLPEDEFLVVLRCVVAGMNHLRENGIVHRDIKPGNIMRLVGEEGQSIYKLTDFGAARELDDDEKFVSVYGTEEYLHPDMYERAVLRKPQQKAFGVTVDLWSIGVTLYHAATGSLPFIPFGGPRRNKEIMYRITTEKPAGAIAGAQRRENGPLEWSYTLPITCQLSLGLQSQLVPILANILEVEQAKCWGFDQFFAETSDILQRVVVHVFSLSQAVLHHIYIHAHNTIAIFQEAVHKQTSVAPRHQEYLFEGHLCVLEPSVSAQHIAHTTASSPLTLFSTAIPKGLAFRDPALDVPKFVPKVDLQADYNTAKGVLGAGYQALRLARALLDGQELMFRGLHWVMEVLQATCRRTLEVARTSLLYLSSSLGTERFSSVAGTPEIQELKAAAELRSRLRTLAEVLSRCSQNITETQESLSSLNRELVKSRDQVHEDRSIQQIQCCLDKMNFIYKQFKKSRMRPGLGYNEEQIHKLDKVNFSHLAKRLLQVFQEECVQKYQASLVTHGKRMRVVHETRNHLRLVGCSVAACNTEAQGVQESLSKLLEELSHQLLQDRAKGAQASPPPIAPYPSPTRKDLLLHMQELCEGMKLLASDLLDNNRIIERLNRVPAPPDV
IGF1R (human), sequence (P08069 whole entry, looked up): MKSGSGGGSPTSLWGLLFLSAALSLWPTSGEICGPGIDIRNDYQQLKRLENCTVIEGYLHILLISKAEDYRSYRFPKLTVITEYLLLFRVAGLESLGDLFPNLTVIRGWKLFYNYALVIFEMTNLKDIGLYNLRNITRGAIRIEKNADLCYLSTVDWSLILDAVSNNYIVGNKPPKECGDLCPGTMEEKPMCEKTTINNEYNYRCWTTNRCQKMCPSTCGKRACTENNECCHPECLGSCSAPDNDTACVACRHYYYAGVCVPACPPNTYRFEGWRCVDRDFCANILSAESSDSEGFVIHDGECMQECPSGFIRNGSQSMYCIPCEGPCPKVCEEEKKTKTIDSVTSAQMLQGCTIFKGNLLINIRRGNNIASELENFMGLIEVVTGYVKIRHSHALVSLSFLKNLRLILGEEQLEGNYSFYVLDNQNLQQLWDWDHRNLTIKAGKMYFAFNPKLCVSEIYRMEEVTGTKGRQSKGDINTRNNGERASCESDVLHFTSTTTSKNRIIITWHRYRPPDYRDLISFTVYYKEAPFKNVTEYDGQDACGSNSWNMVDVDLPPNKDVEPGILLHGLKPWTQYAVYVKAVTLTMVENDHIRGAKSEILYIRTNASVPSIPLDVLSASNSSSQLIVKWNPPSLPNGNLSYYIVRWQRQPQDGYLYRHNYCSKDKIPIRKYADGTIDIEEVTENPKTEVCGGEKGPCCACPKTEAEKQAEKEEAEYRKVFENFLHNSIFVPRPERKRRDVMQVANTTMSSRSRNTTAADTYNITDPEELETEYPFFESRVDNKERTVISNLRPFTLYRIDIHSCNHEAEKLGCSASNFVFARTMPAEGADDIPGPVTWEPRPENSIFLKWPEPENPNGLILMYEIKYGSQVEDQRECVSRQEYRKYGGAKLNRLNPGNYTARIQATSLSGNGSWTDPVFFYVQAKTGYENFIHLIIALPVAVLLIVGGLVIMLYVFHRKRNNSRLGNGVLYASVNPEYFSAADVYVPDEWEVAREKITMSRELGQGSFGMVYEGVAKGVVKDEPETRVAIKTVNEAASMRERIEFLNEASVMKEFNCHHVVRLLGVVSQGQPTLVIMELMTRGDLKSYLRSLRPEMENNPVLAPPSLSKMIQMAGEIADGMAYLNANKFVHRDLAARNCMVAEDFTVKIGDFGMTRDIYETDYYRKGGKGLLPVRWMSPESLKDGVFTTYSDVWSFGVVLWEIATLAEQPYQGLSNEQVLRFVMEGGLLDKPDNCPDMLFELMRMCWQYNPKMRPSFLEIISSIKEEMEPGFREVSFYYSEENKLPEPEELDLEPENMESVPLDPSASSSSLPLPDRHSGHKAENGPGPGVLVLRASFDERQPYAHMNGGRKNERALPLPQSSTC
MAPK14 (human), sequence (Q16539 whole entry, looked up): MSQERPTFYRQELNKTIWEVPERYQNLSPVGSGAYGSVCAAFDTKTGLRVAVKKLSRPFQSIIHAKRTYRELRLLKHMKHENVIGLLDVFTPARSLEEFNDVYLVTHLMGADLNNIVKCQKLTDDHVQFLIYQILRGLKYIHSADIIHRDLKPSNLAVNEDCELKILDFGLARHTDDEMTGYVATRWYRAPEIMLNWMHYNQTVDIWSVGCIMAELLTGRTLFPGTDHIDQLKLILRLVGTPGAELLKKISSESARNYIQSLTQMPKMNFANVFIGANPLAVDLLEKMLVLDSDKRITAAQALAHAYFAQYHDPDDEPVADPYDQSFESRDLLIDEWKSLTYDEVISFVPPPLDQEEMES
NEK2 (human), sequence (P51955 whole entry, looked up): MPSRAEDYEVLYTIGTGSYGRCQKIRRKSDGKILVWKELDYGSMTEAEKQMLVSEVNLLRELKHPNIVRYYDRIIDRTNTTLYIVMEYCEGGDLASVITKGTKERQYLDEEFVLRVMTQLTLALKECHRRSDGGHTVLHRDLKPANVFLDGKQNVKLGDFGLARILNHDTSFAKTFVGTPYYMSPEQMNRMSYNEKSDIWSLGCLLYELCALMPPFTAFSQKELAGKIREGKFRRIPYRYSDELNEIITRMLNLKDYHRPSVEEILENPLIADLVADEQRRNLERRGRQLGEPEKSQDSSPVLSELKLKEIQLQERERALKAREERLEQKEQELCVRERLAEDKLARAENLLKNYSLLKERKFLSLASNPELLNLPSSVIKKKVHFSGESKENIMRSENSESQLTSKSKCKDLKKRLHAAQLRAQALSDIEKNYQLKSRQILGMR
MKNK1 (human), sequence (Q9BUB5 whole entry, looked up): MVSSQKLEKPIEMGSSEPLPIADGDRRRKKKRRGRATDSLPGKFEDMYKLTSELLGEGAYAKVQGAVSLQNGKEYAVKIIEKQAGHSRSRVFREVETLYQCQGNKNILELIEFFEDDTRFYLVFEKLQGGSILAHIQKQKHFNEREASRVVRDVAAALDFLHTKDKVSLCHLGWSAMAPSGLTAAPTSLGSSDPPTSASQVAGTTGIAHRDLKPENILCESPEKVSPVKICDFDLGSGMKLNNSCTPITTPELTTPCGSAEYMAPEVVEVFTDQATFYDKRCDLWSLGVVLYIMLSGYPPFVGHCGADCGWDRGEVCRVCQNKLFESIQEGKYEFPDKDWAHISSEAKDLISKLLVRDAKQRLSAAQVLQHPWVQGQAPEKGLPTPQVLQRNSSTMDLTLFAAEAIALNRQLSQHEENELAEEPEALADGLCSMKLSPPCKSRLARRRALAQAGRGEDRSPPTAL

SMILES: CCC(=O)N1CCN(c2ccc(-n3c(=O)ccc4cnc5ccc(-c6cnc7ccccc7c6)cc5c43)cc2C(F)(F)F)CC1
- per cent of control (IGF1R (human); compound 1.0 µM): 100%
- per cent of control (IGF1R (human); compound 10.0 µM): 93%
- per cent of control (PIM1 (human); compound 1.0 µM): 82%
- per cent of control (PIM1 (human); compound 10.0 µM): 24%
- per cent of control (EPHB3 (human); compound 1.0 µM): 115%
- per cent of control (EPHB3 (human); compound 10.0 µM): 94%
- per cent of control (PDPK1 (human); compound 1.0 µM): 100% and 117%
- per cent of control (PDPK1 (human); compound 10.0 µM): 98% and 101%
- per cent of control (PRKACA (human); compound 1.0 µM): 106%
- per cent of control (PRKACA (human); compound 10.0 µM): 96%
- per cent of control (TBK1 (human); compound 1.0 µM): 96%
- per cent of control (TBK1 (human); compound 10.0 µM): 87%
- per cent of control (FLT1 (human); compound 1.0 µM): 108%
- per cent of control (FLT1 (human); compound 10.0 µM): 84%
- per cent of control (SYK (human); compound 1.0 µM): 131%
- per cent of control (SYK (human); compound 10.0 µM): 68%
- per cent of control (MAPK8 (human); compound 1.0 µM): 98%
- per cent of control (DYRK2 (human); compound 1.0 µM): 99%
- per cent of control (DYRK2 (human); compound 10.0 µM): 99%
- per cent of control (PIM3 (human); compound 1.0 µM): 85%
- per cent of control (PIM3 (human); compound 10.0 µM): 30%
- per cent of control (MAPK11 (human); compound 1.0 µM): 83%
- per cent of control (MAPK11 (human); compound 10.0 µM): 78%
- per cent of control (BRSK2 (human); compound 1.0 µM): 102%
- per cent of control (BRSK2 (human); compound 10.0 µM): 104%
- per cent of control (CHEK2 (human); compound 1.0 µM): 90%
- per cent of control (CHEK2 (human); compound 10.0 µM): 83%
- per cent of control (CSNK1D (human); compound 1.0 µM): 93%
- per cent of control (CSNK1D (human); compound 10.0 µM): 104%
- per cent of control (RPS6KA5 KD1 KD2 (human); compound 1.0 µM): 86%
- per cent of control (MKNK1 (human); compound 1.0 µM): 93%
- per cent of control (MKNK1 (human); compound 10.0 µM): 96%
- per cent of control (MAPK14 (human); compound 1.0 µM): 95%
- per cent of control (MAPK14 (human); compound 10.0 µM): 99%
- per cent of control (MAPK9 (human)): 98%
- per cent of control (NEK2 (human); compound 1.0 µM): 88%
- per cent of control (NEK2 (human); compound 10.0 µM): 99%
- per cent of control (PRKAA1 or PRKAA2 (rat); compound 1.0 µM): 78%
- per cent of control (PRKAA1 or PRKAA2 (rat); compound 10.0 µM): 93%
- per cent of control (IKBKB (human); compound 1.0 µM): 109%
- per cent of control (IKBKB (human); compound 10.0 µM): 63%
- per cent of control (EPHA2 (human); compound 1.0 µM): 120%
- per cent of control (EPHA2 (human); compound 10.0 µM): 87%
- per cent of control (PAK7 (human); compound 10.0 µM): 61%
- per cent of control (MELK (human); compound 1.0 µM): 63%
- per cent of control (MELK (human); compound 10.0 µM): 17%
- per cent of control (MAP2K1 (human); compound 1.0 µM): 69%
- per cent of control (MAP2K1 (human); compound 10.0 µM): 22%
- per cent of control (HIPK2 (human); compound 1.0 µM): 96%
- per cent of control (HIPK2 (human); compound 10.0 µM): 88%
- per cent of control (INSRR (human); compound 10.0 µM): 73%
- per cent of control (BTK (human); compound 1.0 µM): 104%
- per cent of control (BTK (human); compound 10.0 µM): 56%
- per cent of control (GSK3B (human); compound 1.0 µM): 79%
- per cent of control (GSK3B (human); compound 10.0 µM): 49%
- per cent of control (IKBKE (human); compound 1.0 µM): 96%
- per cent of control (IKBKE (human); compound 10.0 µM): 85%
- per cent of control (MARK3 (human); compound 1.0 µM): 99%
- per cent of control (MARK3 (human); compound 10.0 µM): 98%
- per cent of control (PHKG1 (human); compound 1.0 µM): 110%
- per cent of control (PHKG1 (human); compound 10.0 µM): 99%
- per cent of control (MAPK15 (human); compound 1.0 µM): 78%
- per cent of control (MAPK15 (human); compound 10.0 µM): 46%

SMILES: CC(C)n1nc(-c2cc3cc(O)ccc3[nH]2)c2c(N)ncnc21
- per cent of control (IGF1R (human); compound 1.0 µM): 103%
- per cent of control (IGF1R (human); compound 10.0 µM): 89%
- per cent of control (PIM1 (human); compound 1.0 µM): 74%
- per cent of control (PIM1 (human); compound 10.0 µM): 21%
- per cent of control (EPHB3 (human); compound 1.0 µM): 18%
- per cent of control (EPHB3 (human); compound 10.0 µM): 5%
- per cent of control (PDPK1 (human); compound 1.0 µM): 83% and 93%
- per cent of control (PDPK1 (human); compound 10.0 µM): 60% and 71%
- per cent of control (PRKACA (human); compound 1.0 µM): 94%
- per cent of control (PRKACA (human); compound 10.0 µM): 45%
- per cent of control (TBK1 (human); compound 1.0 µM): 97%
- per cent of control (TBK1 (human); compound 10.0 µM): 95%
- per cent of control (FLT1 (human); compound 1.0 µM): 11%
- per cent of control (FLT1 (human); compound 10.0 µM): 2%
- per cent of control (SYK (human); compound 1.0 µM): 89%
- per cent of control (SYK (human); compound 10.0 µM): 61%
- per cent of control (MAPK8 (human); compound 1.0 µM): 94%
- per cent of control (MAPK8 (human); compound 10.0 µM): 103%
- per cent of control (DYRK2 (human); compound 1.0 µM): 17%
- per cent of control (DYRK2 (human); compound 10.0 µM): 7%
- per cent of control (PIM3 (human); compound 1.0 µM): 59%
- per cent of control (PIM3 (human); compound 10.0 µM): 13%
- per cent of control (MAPK11 (human); compound 1.0 µM): 91%
- per cent of control (MAPK11 (human); compound 10.0 µM): 77%
- per cent of control (BRSK2 (human); compound 1.0 µM): 26%
- per cent of control (BRSK2 (human); compound 10.0 µM): 4%
- per cent of control (CHEK2 (human); compound 1.0 µM): 31%
- per cent of control (CHEK2 (human); compound 10.0 µM): 2%
- per cent of control (CSNK1D (human); compound 1.0 µM): 50%
- per cent of control (CSNK1D (human); compound 10.0 µM): 9%
- per cent of control (RPS6KA5 KD1 KD2 (human); compound 1.0 µM): 105%
- per cent of control (RPS6KA5 KD1 KD2 (human); compound 10.0 µM): 49%
- per cent of control (MKNK1 (human); compound 1.0 µM): 51%
- per cent of control (MKNK1 (human); compound 10.0 µM): 12%
- per cent of control (MAPK14 (human); compound 1.0 µM): 95%
- per cent of control (MAPK14 (human); compound 10.0 µM): 90%
- per cent of control (MAPK9 (human)): 103%
- per cent of control (NEK2 (human); compound 1.0 µM): 86%
- per cent of control (NEK2 (human); compound 10.0 µM): 54%
- per cent of control (PRKAA1 or PRKAA2 (rat); compound 1.0 µM): 70%
- per cent of control (PRKAA1 or PRKAA2 (rat); compound 10.0 µM): 28%
- per cent of control (IKBKB (human); compound 1.0 µM): 85%
- per cent of control (IKBKB (human); compound 10.0 µM): 84%
- per cent of control (EPHA2 (human); compound 1.0 µM): 12%
- per cent of control (EPHA2 (human); compound 10.0 µM): 3%
- per cent of control (PAK7 (human); compound 1.0 µM): 69%
- per cent of control (PAK7 (human); compound 10.0 µM): 34%
- per cent of control (MELK (human); compound 1.0 µM): 26%
- per cent of control (MELK (human); compound 10.0 µM): 13%
- per cent of control (MAP2K1 (human); compound 1.0 µM): 25%
- per cent of control (MAP2K1 (human); compound 10.0 µM): 10%
- per cent of control (HIPK2 (human); compound 1.0 µM): 26%
- per cent of control (HIPK2 (human); compound 10.0 µM): 7%
- per cent of control (INSRR (human); compound 1.0 µM): 47%
- per cent of control (INSRR (human); compound 10.0 µM): 29%
- per cent of control (BTK (human); compound 1.0 µM): 20%
- per cent of control (BTK (human); compound 10.0 µM): 5%
- per cent of control (GSK3B (human); compound 1.0 µM): 103%
- per cent of control (GSK3B (human); compound 10.0 µM): 60%
- per cent of control (IKBKE (human); compound 1.0 µM): 86%
- per cent of control (IKBKE (human); compound 10.0 µM): 64%
- per cent of control (MARK3 (human); compound 1.0 µM): 67%
- per cent of control (MARK3 (human); compound 10.0 µM): 31%
- per cent of control (PHKG1 (human); compound 1.0 µM): 72%
- per cent of control (PHKG1 (human); compound 10.0 µM): 25%
- per cent of control (MAPK15 (human); compound 1.0 µM): 50%
- per cent of control (MAPK15 (human); compound 10.0 µM): 6%
